In data set [1] the test system is WM266. Put plainly: MTT cell viability assay on metastatic melanoma cell line WM266. It is filed as cell-based, human. Conditions: for IC50: Homo sapiens; for TSI WM266: tumor selectivity index = IC50 on C3PV / IC50 on WM266. The protocol: (§1) The primary human healthy fibroblast C3PV cell line was grown in a culture medium containing 50% Dulbecco Modified Medium (DMEM) and 50% Ham’s F10 supplemented with 10% Fetal Bovine Serum (FBS). […] To all growing media were added 1% Pen/Strep and 1% Glutamine.
(§2) To study the effect of artemisinin derivatives on cell viability, MTT assay was performed. Briefly, C3PV, WM115, and WM266 cell lines were seeded in 96-well plates (3000 cells/well in 100 μL of medium) 24 h before treatment and incubated overnight to allow for cell adherence. Afterward, the medium was replaced with a fresh one containing the appropriate dose of newly synthesized compounds (doses ranging from 0.01 to 1 μM were used for 24 h). The analyses of cell viability were performed at the end of the treatment. Triplicates were made in all experiments. After 24 h of treatment with newly synthesized compounds, the culture medium was replaced with a solution containing 0.5 mg/mL of MTT. After 3 h of incubation in an incubator, the medium was removed, and a lysis solution (10% SDS, 0.6% acetic acid in DMSO) was added to dissolve the formazan crystals. Optical density measurements were performed with a microplate reader EPOCH/2 (Biotek) with 630 nm (background) and a 570 nm filters.
(§3) The IC50 values were determined via non-linear regression, using the GraphPad Prism software package version 8 (GraphPad Software, San Diego, CA, USA). Results were expressed as means of IC50 values ± SD. The TSI values were calculated using the following formula: […]

Data set [2] relates to WM266. The experiment in a line: Cell viability assay in the presence or absence of DFO on WM266. Conditions: Homo sapiens, treatment time 48 h. In kind it is cell-based. From the text: To obtain information about the mode of action of compounds 9c, 9f, 10b, and 10f, we repeated the cell viability assays on the metastatic cancer line WM266 in the presence of the Fe^2+ chelating agent deferoxamine (DFO). As mentioned above, Fe^2+ ions trigger endoperoxide bridge opening of the sesquiterpene counterpart by Fenton-like mechanisms, leading to the formation of carbon- and oxygen-centered radicals. Usually, this in cell formation of single-electron reactive species seems to be responsible for the biological activity of ART and its semisynthetic and hybrid derivatives. Sequestration of Fe^2 by DFO generally reduces the efficacy of the compounds studied.
DFO was used to study the mode of action of compounds 9c, 9f, 10b, and 10f on WM266 cell line. Twenty-four hours before treatment, cells were seeded in 96-well plates and incubated overnight. Then, cells were pre-treated with 20 μM of DFO for 1 h. After this time, two washes with PBS were performed, and, subsequently, fresh medium containing different doses of the opportune compound was added for 48h. The analyses of cell viability were performed at the end of treatment, and triplicates were made in all experiments.

A short description of data set [3]: Stability by NMR analyses after heating. It is filed as physicochemical. Conditions: after heating at 45 and 100 °C for 8 and 2 h, respectively. The protocol: Based on cellular results, hybrids 9c, 9f, 10b, and 10f were selected for further studies. Their stability was evaluated by NMR analyses after heating them at 45 and 100 °C for 8 and 2 h, respectively (Supplementary Materials S1).

A further data set relates to WM115. Put plainly: MTT cell viability assay on primary melanoma cell line WM115. The conditions noted are these: for IC50: primary melanoma WM115, MTT, 24 h treatment, triplicates, read-out: IC50 (µM ± SD) WM115; for TSI WM115: tumor selectivity index = IC50 on C3PV / IC50 on WM115. In kind it is cell-based, human. The protocol:
as §1, §2, §3
For orientation: Tetrazolium dyes change colour on reduction, which living cells bring about.

For a further data set, the system named is C3PV. Put plainly: MTT cell viability assay on normal fibroblasts C3PV. In kind it is cell-based, human. The conditions noted are these: 24 h treatment, triplicates, read-out: IC50 (µM ± SD) C3PV. The protocol: as §1
as §2, with “Afterward, the medium was replaced with a fresh one containing the appropriate dose of newly synthesized compounds (doses ranging from 0.01 to 1 μM were used for 24 h).” left out
as §3

The test system of a further data set is melanoma. Conditions: metastatic melanoma drug; cited from earlier work.
Setting [4] is: WM266, 24 h, metastatic melanoma WM266, MTT, 24 h treatment, triplicates, read-out: IC50 (µM ± SD) WM266.
[5] abbreviates: WM266, reference hybrid on WM266, as printed in Table 2, read-out: IC50 ± SD R.H.
Setting [6] is: WM266, pre-treated with 20 μM DFO for 1 h, read-out: IC50 ± SD WM266 with DFO.
Where [7] appears, read: WM266, without DFO, read-out: IC50 ± SD WM266 without DFO.

Like-named read-outs stand apart in the source and are kept apart here.

The values that follow come from article PMC11279807, “Modulation of the Antimelanoma Activity Imparted to Artemisinin Hybrids by the Monoterpene Counterpart” (Molecules, 2024).

Broadly, the IC50 is the concentration that inhibits the measured activity by half. For `CC(C)=CCCC(C)CCO[C@H]1O[C@@H]2O[C@@]3(C)CC[C@H]4[C@H](C)CC[C@@H]([C@H]1C)[C@@]24OO3` (stereo partly drawn) [Hybrid 9c], the IC50 in the data set on WM266 [1] (setting [4]) worked out at 1.4 ± 0.56 µM; in the data set on WM266 [1] (setting [5]) it was 1.4 ± 0.56 µM; with WM266 [2] (setting [6]), 12.7 ± 0.3 µM; with WM266 [2] (setting [7]), 1.4 ± 0.56 µM; in the data set on WM115 (Homo sapiens, WM-115, 24 h), 2.1 ± 0.3 µM; in the data set on C3PV (Homo sapiens, C3PV, 24 h), 364 ± 7.9 µM. In addition, the “TSI WM266” value with WM266 [1] worked out at 260.1. The “decomposition by 1H NMR” value in data set [3] is reported as “less than 5%”. For the same compound, in the data set on WM115, the “TSI WM115” value is listed as 173.4.

As to `CC(C)=CCCC(C)=CCOC1OC2OC3(C)CCC4C(C)CCC(C1C)C24OO3` (stereo not drawn) [Hybrid 9f], the IC50 with WM266 [1] (setting [4]) is 1.9 ± 0.5 µM; in the data set on WM266 [1] (setting [5]), 1.9 ± 0.5 µM; with WM266 [2] (setting [6]), 132.7 ± 0.4 µM; in the data set with WM266 [2] (setting [7]), 1.9 ± 0.5 µM; with WM115 (Homo sapiens, WM-115, 24 h), 3 ± 0.4 µM; in the data set on C3PV (Homo sapiens, C3PV, 24 h), 87.3 ± 2.5 µM. Also, the “TSI WM266” value in the data set with WM266 [1] is reported as 45.9. Besides, the “decomposition by 1H NMR” value in data set [3] is reported as “less than 5%”. Also, in the data set with WM115, the “TSI WM115” value amounted to 29.1.

For `C=C(C)C1CC=C(COC(=O)CCC(=O)OC2OC3OC4(C)CCC5C(C)CCC(C2C)C35OO4)CC1` (stereo not drawn) [Hybrid 10b], the concentration for half-maximal inhibition (IC50) in the data set with WM266 [1] (setting [4]) is 0.02 ± 0.01 µM; in the data set on WM266 [1] (setting [5]) it was 0.02 ± 0.01 µM; in the data set with WM266 [2] (setting [6]) it was 0.31 ± 0.1 µM; in the data set on WM266 [2] (setting [7]), 0.02 ± 0.01 µM; with WM115 (Homo sapiens, WM-115, 24 h), 0.03 ± 0.01 µM; with C3PV (Homo sapiens, C3PV, 24 h) it was 20.3 ± 5.5 µM. Also, the “TSI WM266” value in the data set on WM266 [1] was found to be 1015.0. Further, in data set [3], the “decomposition by 1H NMR” value is on record as “less than 5%”. Moreover, the “TSI WM115” value in the data set on WM115 was found to be 676.7.

As to `CC(C)=CCCC(C)=CCOC(=O)CCC(=O)OC1OC2OC3(C)CCC4C(C)CCC(C1C)C24OO3` (stereo not drawn) [Hybrid 10f], the IC50 with WM266 [1] (setting [5]) was found to be 0.09 ± 0.03 µM; in the data set with WM266 [2] (setting [6]), 0.5 ± 0.1 µM; in the data set on WM266 [2] (setting [7]) it was 0.09 ± 0.03 µM; in the data set on WM115 it was 0.4 ± 0.04 µM; in the data set on C3PV, 7.9 ± 4.5 µM. In addition, the “TSI WM266” value in the data set on WM266 [1] amounted to 87.8. Moreover, the “decomposition by 1H NMR” value in data set [3] is “less than 5%”. Besides, the “TSI WM115” value in the data set on WM115 was 19.8.

For `Cn1nnc2c(C(N)=O)ncn2c1=O` [temozolomide], in the data set with melanoma, the concentration for half-maximal inhibition (IC50) was below 50 µM.
